Earlier results, collected in patent publication US5468499A, “Liposomes containing the salt of phosphoramide mustard and related compounds” (Ohio State University, priority 1993, dated 1995).

System: tumor

Q: With `O=P1(N(CCCl)CCCl)NCCCO1` (stereo not shown) [cyclophosphamide] as the molecule, how does the “tumoricidal activity of the drug itself” value read?
A: The value was “not directly tumoricidal”.
